In patent US20070160664A1, “Pharmaceutical compositions comprising of proton pump inhibitor and prokinetic agent” (PANACEA BIOTEC LIMITED, priority 2004, published 2007):

Assay: Dissolution of domperidone co-processed with an organic acid (developmental studies)
Assay type: physicochemical
Details: alkaline pH conditions encountered in the gastro-intestinal tract
Source text: According to a preferred embodiment of the invention, domperidone is co-processed with an organic acid in the ratio of from about 1:0.25 to about 0.25:1, preferably from about 1:0.5 to about 0.5:1, most preferably about 1:1. The co-processing may be aided by dissolving the two ingredients with the help of heat followed by cooling, when the dissolved material separates out. The material separated out may be removed and dried. The co-processed material may be incorporated into dosage forms such as tablets, which may further be combined with enteric coated tablets of proton pump inhibitor and an immediate release tablet of domperidone, in a hard gelatin capsule.

dissolution: improved dissolution
SMILES: O=c1[nH]c2ccccc2n1CCCN1CCC(n2c(=O)[nH]c3cc(Cl)ccc32)CC1 [domperidone]
